Assay results published in PubChem BioAssay (NCI).
Several values for one entry are separate records, joined by “and”; a condition that tells them apart may be missing. Equal entries are not always repeated.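 Cultured in 96-well plates, cells were exposed to test compound for 48 hours across five concentrations. GI50 is the concentration that inhibits growth by half. TGI: total growth inhibition.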

How the values were obtained:
Assay in all cases: growth of human tumour cells (NCI), 48 h
NCI-H23 lung = tested on: NCI-H23 lung
SR leukemia = tested on: SR leukemia
NCI/ADR-RES ovarian = tested on: NCI/ADR-RES ovarian
BT-549 breast = tested on: BT-549 breast
HS 578T breast = tested on: HS 578T breast
CCRF-CEM leukemia = tested on: CCRF-CEM leukemia
SK-MEL-5 melanoma = tested on: SK-MEL-5 melanoma
M14 melanoma = tested on: M14 melanoma
A498 renal = tested on: A498 renal
OVCAR-4 ovarian = tested on: OVCAR-4 ovarian
MCF7 breast = tested on: MCF7 breast
HL-60(TB) leukemia = tested on: HL-60(TB) leukemia
SK-OV-3 ovarian = tested on: SK-OV-3 ovarian

Row | Compound | TGI (NCI-H23 lung) | TGI (SR leukemia) | TGI (NCI/ADR-RES ovarian) | TGI (BT-549 breast) | TGI (HS 578T breast) | TGI (CCRF-CEM leukemia) | TGI (SK-MEL-5 melanoma) | TGI (M14 melanoma) | TGI (A498 renal) | TGI (OVCAR-4 ovarian) | TGI (MCF7 breast) | TGI (HL-60(TB) leukemia) | TGI (SK-OV-3 ovarian) | GI50 (NCI-H23 lung) | GI50 (CCRF-CEM leukemia) | GI50 (OVCAR-4 ovarian)
1 | N/C(=N\Nc1cccc(Cl)c1)c1cccnc1 | > 100 µM | 64.9 µM | > 100 µM | > 100 µM | > 100 µM | > 100 µM | > 88 µM | 59.2 µM | 87.4 µM | > 100 µM | > 100 µM | > 66.9 µM | > 100 µM |  |  | 
2 | COP(=N[Si](C)(C)C)(OC)OC | > 100 µM | > 100 µM | > 100 µM | > 100 µM | > 100 µM | > 100 µM | > 100 µM | > 100 µM | > 100 µM | > 100 µM | > 100 µM | > 100 µM | > 100 µM |  |  | 
3 | CSC1=C(C)S/C(=C\c2ccc(/C=C3\SC(C)=C(SC)S3)cc2)S1 | > 100 µM | > 100 µM | > 100 µM | > 100 µM | > 100 µM | > 100 µM | > 100 µM | > 100 µM | > 100 µM | > 100 µM | > 100 µM | > 100 µM | > 100 µM |  |  | 
4 | CC1(C)C2CC1C(/C=N\OCC(=O)O)=CC2=O (stereo not drawn) | > 100 µM | > 100 µM | > 100 µM | > 100 µM | > 100 µM | > 100 µM | > 100 µM | > 100 µM | > 100 µM | > 100 µM | > 100 µM | > 100 µM | > 100 µM |  |  | 
5 | COC(=O)/N=[N+](\[O-])C(c1ccc(Cl)cc1)c1ccc(Cl)cc1 | > 100 µM | > 100 µM | > 100 µM | > 100 µM | > 100 µM | > 100 µM | 78.6 µM | > 100 µM | > 100 µM | > 100 µM | > 100 µM | 97.3 µM | > 100 µM |  |  | 
6 | CN(O)C(=O)c1ccc(OCc2cccc(Cl)c2)cc1 | > 100 µM | > 72.4 µM | > 89.4 µM | > 100 µM | > 100 µM | > 100 µM | > 100 µM | > 50 µM | > 100 µM | > 100 µM | > 100 µM | 22.2 µM | > 100 µM |  |  | 
7 | Cc1cc2c(c(C=Nc3ccc(N(C)C)cc3)c1)OC1(C=C2)Oc2ccccc2C(=O)N1C (stereo not drawn) | 28.4 µM | > 100 µM | > 60.7 µM | 29.4 µM | > 90.4 µM | 17.5 µM | 27.6 µM | 30 µM | 42.1 µM | 25.1 µM | 37.9 µM | 19.9 µM | 66.6 µM |  |  | 
8 | O=C(c1c(F)c(F)c(F)c(F)c1F)n1c(=O)[nH]c2ccccc21 | 11.4 µM | 8.8 µM | 58.1 µM | 37.5 µM | 38.8 µM | 18.8 µM | 28.7 µM | 22.1 µM | 33.6 µM | 31.8 µM | 16.8 µM | 5.05 µM | 29.7 µM |  |  | 
9 | O=S(=O)(O)c1ccc(N=Nc2c(O)ccc3ccccc23)cc1 | > 100 µM | > 100 µM | > 100 µM | > 100 µM | > 100 µM | > 100 µM | > 100 µM | > 100 µM | > 100 µM | > 100 µM | > 100 µM | > 100 µM | > 100 µM |  |  | 
10 | CC(C)/C(Cl)=N/OC(NC(=O)Nc1ccc(Cl)c(Cl)c1)(C(F)(F)F)C(F)(F)F | 38.2 µM | > 100 µM | 31.7 µM | 25.7 µM | 99.4 µM | 5.71 µM | 29.3 µM | 18.3 µM | 34.7 µM | 25.8 µM | > 50.2 µM | 6.39 µM | 32.3 µM |  |  | 
11 | CC(=O)O[C@H]1CC[C@@]2(C)C(=CC[C@H]3[C@@H]4C[C@H](N5CCN(C)CC5)[C@H](OC(C)=O)[C@@]4(C)CC[C@@H]32)C1 | 48.3 µM | 11.4 µM | 44.6 µM | 32.8 µM | 61.8 µM | 16 µM | 12.5 µM | 8.2 µM | 48.3 µM | 32.6 µM | 15.3 µM | 6.9 µM | > 65.8 µM |  |  | 
12 | COC(=O)C1C(O)C(C)C(O)C(C)/C=C\C=C(C)C(=O)Nc2c(C)c(OC(C)=O)c3c(c2O)C(=O)C(C)=C2OCOC(=C23)C(C)=CC(C)(O)C(O)C(C)C1O (stereo not drawn) | 58.9 µM and > 100 µM | > 100 µM | > 100 µM | > 100 µM | > 100 µM | 50.9 µM and > 100 µM | 74.5 µM and > 100 µM | > 100 µM | > 75 µM | > 100 µM | 51.1 µM and > 100 µM | 42.2 µM and > 100 µM | > 100 µM | 32.6 µM and > 100 µM | 18.9 µM and 54.7 µM | > 66.3 µM and 14.6 µM
13 | CCOC(=O)c1nc2cc(F)c(F)cc2nc1NCc1cc(OC)c(OC)c(OC)c1 | > 100 µM | > 100 µM | > 100 µM | > 100 µM | > 100 µM | > 100 µM | > 100 µM | > 100 µM | > 100 µM | > 100 µM | > 100 µM | > 100 µM | > 100 µM |  |  | 
14 | COc1ccc(/C=C/C(=O)c2cccc(C(=O)/C=C/c3ccc(OC)c(OC)c3)n2)cc1OC | > 100 µM | > 25.9 µM | > 86.8 µM | 44.9 µM | > 95.5 µM | 6.29 µM | > 100 µM | > 79.8 µM | > 100 µM | > 100 µM | > 100 µM | 92.2 µM | > 100 µM |  |  | 
15 | CCOC(=O)CCN1C(=O)c2ccc(NC(=O)C(=O)O)cc2S1(=O)=O | > 100 µM | > 100 µM | > 100 µM | > 100 µM | > 100 µM | > 100 µM | > 100 µM | > 100 µM | > 100 µM | > 100 µM | > 100 µM | > 100 µM | > 100 µM |  |  | 
